Laboratory results: patent US8530387B2, “Dithiinopyridazinone derivatives” (Bayer CropScience AG, priority 2010, dated 2013)

How the values were obtained:
[1] = logP by HPLC on reversed-phase column (C18), EEC Directive 79/831 Annex V.A8; assay type: physicochemical; settings: for Log P: pH 2.7
Experimental: The logP values reported in the preparation examples and tables above are determined in accordance with EEC Directive 79/831 Annex V.A8 by means of HPLC (High Performance Liquid Chromatography) on a reversed-phase column (C18). Temperature: 43° C. […] Calibration takes place using unbranched alkan-2-ones (having 3 to 16 carbon atoms) of which the logP values are known (logP values determined on the basis of the retention times, by linear interpolation between two successive alkanones). The lambda-max values were determined on the basis of the UV spectra from 200 nm to 400 nm in the maxima of the chromatographic signals.

Phytophthora infestans = assay type: in vivo; settings: young tomato plants, protective spray, 1500 ppm, evaluation 7 days following inoculation
Alternaria solani = experiment: Alternaria test (tomato)/protective; assay type: in vivo; settings: young tomato plants, protective spray, 1500 ppm, evaluation 7 days following inoculation
Description: Alternaria Test (Tomato)/Protective • Solvent: 49 parts by weight of N,N-dimethylformamide • Emulsifier: 1 part by weight of alkylaryl polyglycol ether An appropriate preparation of active compound is produced by mixing 1 part by weight of active compound with the stated amounts of solvent and emulsifier and diluting the concentrate with water to the desired concentration. To test for protective activity, young tomato plants are sprayed with the preparation of active compound at the stated application rate. […] Subsequently the plants stand at 96% relative humidity and a temperature of 20° C. After 7 days following inoculation, evaluation takes place.

Puccinia recondita = experiment: Puccinia test (wheat)/protective; assay type: in vivo; settings: young wheat plants, protective spray, 1500 ppm, evaluation 7-9 days following inoculation
Description: Puccinia Test (Wheat)/Protective • Solvent: 49 parts by weight of N,N-dimethylformamide • Emulsifier: 1 part by weight of alkylaryl polyglycol ether An appropriate preparation of active compound is produced by mixing 1 part by weight of active compound with the stated amounts of solvent and emulsifier and diluting the concentrate with water to the desired concentration. To test for protective activity, young wheat plants are sprayed with the preparation of active compound at the stated application rate. […] Subsequently the plants stand at 80% relative humidity and at a temperature of 20° C. After 7-9 days following inoculation, evaluation takes place.

Venturia inaequalis = experiment: Venturia test (apple)/protective; assay type: in vivo; settings: young apple plants, protective spray, 250 ppm, evaluation 10 days following inoculation
Experimental: Venturia Test (Apple)/Protective […] An appropriate preparation of active compound is produced by mixing 1 part by weight of active compound with the stated amounts of solvent and emulsifier and diluting the concentrate with water to the desired concentration. To test for protective activity, young plants are sprayed with the preparation of active compound at the stated application rate. […] Subsequently the plants are placed in a greenhouse at approximately 21° C. and approximately 90% humidity. After 10 days following inoculation, evaluation takes place.

Plasmopara viticola = experiment: Plasmopara test (grapevine)/protective; assay type: in vivo; settings: young grapevine plants, protective spray, 250 ppm, evaluation 6 days following inoculation

Row | Compound | Log P [1] | Efficacy in % (Phytophthora infestans) [%] | Efficacy in % (Alternaria solani) [%] | Efficacy in % (Puccinia recondita) [%] | Efficacy in % (Venturia inaequalis) [%] | Efficacy in % (Plasmopara viticola) [%] | chromatographic logP ([1]; HPLC, C18, 43° C., acidic range pH 2.7 (0.1% aqueous formic acid/acetonitrile), read-out: Log P)
1 | N#CC1=C(C#N)Sc2c(c(=O)n3n(c2=O)CCC3)S1 [Compound 8] | 1.20 | 75 | 86 | 95 | – | – | –
2 | Cn1c(=O)c2c(c(=O)n1C)Sc1c(c(=O)n(C)n(C)c1=O)S2 [Compound 10] | 0.74 | – | – | – | – | – | –
3 | CCn1c(=O)c2c(c(=O)n1C)SC(C#N)=C(C#N)S2 [Compound 9] | 1.72 | 94 | 86 | 95 | 86 | 93 | –
4 | CCCn1c(=O)c2c(c(=O)n1CC)SC(C#N)=C(C#N)S2 [Compound 5] | 2.46 | 94 | 93 | 95 | 95 | 95 | –
5 | N#CC1=C(C#N)Sc2c(c(=O)n3n(c2=O)CCCC3)S1 [Compound 2, 5,12-dioxo-5,7,8,9,10,12-hexahydro[1,4]dithiino[2,3-d]pyridazino[1,2-a]pyridazine-2,3-dicarbonitrile] | – | 88 | 93 | 95 | 89 | 100 | 1.74
6 | CCCn1c(=O)c2c(c(=O)n1C)SC(C#N)=C(C#N)S2 [Compound 7] | 2.08 | 88 | 93 | 80 | – | – | –
7 | N#CC1=C(C#N)Sc2c(c(=O)n3n(c2=O)CCOCC3)S1 [Compound 6] | 1.51 | 75 | 86 | 95 | – | – | –
8 | Cn1c(=O)c2c(c(=O)n1C)SC(C#N)=C(C#N)S2 [Compound 1] | 1.39 | – | – | 90 | – | – | –
9 | CCCn1c(=O)c2c(c(=O)n1CCC)SC(C#N)=C(C#N)S2 [Compound 4] | 2.80 | 94 | 93 | 95 | – | – | –
10 | CCn1c(=O)c2c(c(=O)n1CC)SC(C#N)=C(C#N)S2 [Compound 3] | 2.05 | 75 | 86 | 95 | – | – | –
